{"source": "patent US20230271958A1", "about": "“SALT AND CRYSTAL FORM OF DIHYDROPYRIDO[2,3-d]PYRIMIDINE DERIVATE” (NANJING CHIA TAI TIANQING PHARMACEUTICAL CO., LTD., priority 2020, published 2023)", "assay": "Solid stability of crystal form A (chemical purity by HPLC)", "type": "physicochemical", "details": "for Purity (%) after placement (day 20): exposed to air for 20 d; for Purity (%) before placement (day 0): exposed to air", "experimental": "Hot and humid conditions: temperature: 40° C., relative humidity: 75%, crystal form A was exposed to air for 20 d • b. High temperature conditions: temperature: 60° C., crystal form A was exposed to air for 20 d\nThe chemical purity of crystal form A was measured by HPLC.\nChromatographic column: ACE Excel 5 Super C18 (4.6×150 mm, 5 μm)\nDetection wavelength: 230 nm, column temperature: 30° C., flow rate: 1.0 mL/min\nMobile phase: diammonium hydrogen phosphate (1.32 g) was weighed and dissolved in water (1000 mL), the solution was adjusted with phosphoric acid until the pH of the solution was 7.2, filtered, and used as A phase; and acetonitrile was used as B phase.", "key": {"[1]": {"details": "condition a: 40° C., relative humidity 75%"}}}
{"smiles": "CC(C)NC[C@@H](C(=O)N1CCN(c2ncnc3c2[C@H](C)CC(=O)N3)[C@H]2C[C@H]21)c1ccc(Cl)cc1.O=C(O)/C=C/C(=O)O", "note": "[crystal form A]", "values": [{"measurement": "Purity (%) after placement (day 20)", "setting": "[1]", "value": 99.89, "unit": "%"}, {"measurement": "Purity (%) before placement (day 0)", "setting": "[1]", "value": 99.84, "unit": "%"}, {"measurement": "Purity (%) after placement (day 20)", "setting": "condition b: 60° C.", "value": 99.88, "unit": "%"}, {"measurement": "Purity (%) before placement (day 0)", "setting": "condition b: 60° C.", "value": 99.84, "unit": "%"}]}
